# The supplement of paper PMC10307832
# Experiments:
# Experiment in all cases: relative viability (nuclei count vs DMSO), 5 days (fraction); higher = more cells survive
# [1] = test system: BEN
# Summary of the method: (§1)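 Lung cancer cell lines were seeded in 1536-well plates and dosed by pin tool the next day, with either a single drug or a fixed anchor-drug dose combined with five library-drug doses (not always all listed) spaced in √10 steps. Five days later, one step fixed the cells and stained their nuclei (final 0.05% Triton X-100, 1% formaldehyde, 1 ug/ml Hoechst), and nuclei were counted on 4× images. Relative viability is the nuclei count in treated wells divided by the count in vehicle wells, and each value is the median of duplicate plates.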
# [2] = test system: EKVX
# Summary of the method: as §1
# [3] = test system: HARA
# Summary of the method: as §1
# [4] = test system: HCC-366
# Summary of the method: as §1
# [5] = test system: HCC-827
# Summary of the method: as §1
# [6] = test system: LOU-NH91
# Summary of the method: as §1
# [7] = test system: NCI-H1355
# Summary of the method: as §1
# [8] = test system: NCI-H1395
# Summary of the method: as §1
# [9] = test system: NCI-H1437
# Summary of the method: as §1
# [10] = test system: NCI-H1734
# Summary of the method: as §1
# [11] = test system: NCI-H1792
# Summary of the method: as §1
# [12] = test system: NCI-H1993
# Summary of the method: as §1
# [13] = test system: NCI-H2009
# Summary of the method: as §1
# [14] = test system: NCI-H2087
# Summary of the method: as §1
# [15] = test system: NCI-H2170
# Summary of the method: as §1
# [16] = test system: NCI-H2405
# Summary of the method: as §1
# [17] = test system: NCI-H647
# Summary of the method: as §1
# [18] = test system: NCI-H661
# Summary of the method: as §1
# [19] = test system: SK-LU-1
# Summary of the method: as §1
# [20] = test system: SK-MES-1
# Summary of the method: as §1
smiles,measurement,setting,value
Cc1sc2c(c1C)C(c1ccc(Cl)cc1)=N[C@@H](CC(=O)OC(C)(C)C)c1nnc(C)n1-2 [JQ1] + CS(=O)(=O)N1CCN(Cc2cc3nc(-c4cccc5[nH]ncc45)nc(N4CCOCC4)c3s2)CC1 [Pictilisib] (partner 1 µM),relative viability,[1]; first compound 0.04 µM,0.481
same,relative viability,[1]; first compound 0.1265 µM,0.486
same,relative viability,[1]; first compound 0.4 µM,0.461
same,relative viability,[1]; first compound 1.265 µM,0.272
same,relative viability,[1]; first compound 4 µM,0.205
same,relative viability,[2]; first compound 0.04 µM,0.442
same,relative viability,[2]; first compound 0.1265 µM,0.464
same,relative viability,[2]; first compound 0.4 µM,0.459
same,relative viability,[2]; first compound 1.265 µM,0.359
same,relative viability,[2]; first compound 4 µM,0.335
same,relative viability,[3]; first compound 0.04 µM,0.505
same,relative viability,[3]; first compound 0.1265 µM,0.224
same,relative viability,[3]; first compound 0.4 µM,0.379
same,relative viability,[3]; first compound 1.265 µM,0.177
same,relative viability,[3]; first compound 4 µM,0.0809
same,relative viability,[4]; first compound 0.04 µM,0.136
same,relative viability,[4]; first compound 0.1265 µM,0.156
same,relative viability,[4]; first compound 0.4 µM,0.131
same,relative viability,[4]; first compound 1.265 µM,0.153
same,relative viability,[4]; first compound 4 µM,0.196
same,relative viability,[5]; first compound 0.04 µM,1.06
same,relative viability,[5]; first compound 0.4 µM,0.544
same,relative viability,[5]; first compound 1.265 µM,0.911
same,relative viability,[5]; first compound 4 µM,0.752
same,relative viability,[6]; first compound 0.04 µM,0.529
same,relative viability,[6]; first compound 0.1265 µM,0.545
same,relative viability,[6]; first compound 0.4 µM,0.463
same,relative viability,[6]; first compound 1.265 µM,0.419
same,relative viability,[6]; first compound 4 µM,0.354
same,relative viability,[7]; first compound 0.04 µM,0.429
same,relative viability,[7]; first compound 0.1265 µM,0.426
same,relative viability,[7]; first compound 0.4 µM,0.456
same,relative viability,[7]; first compound 1.265 µM,0.334
same,relative viability,[7]; first compound 4 µM,0.281
same,relative viability,[8]; first compound 0.04 µM,0.652
same,relative viability,[8]; first compound 0.1265 µM,0.582
same,relative viability,[8]; first compound 0.4 µM,0.62
same,relative viability,[8]; first compound 1.265 µM,0.403
same,relative viability,[8]; first compound 4 µM,0.407
same,relative viability,[9]; first compound 0.04 µM,0.405
same,relative viability,[9]; first compound 0.1265 µM,0.237
same,relative viability,[9]; first compound 0.4 µM,0.233
same,relative viability,[9]; first compound 1.265 µM,0.157
same,relative viability,[9]; first compound 4 µM,0.168
same,relative viability,[10]; first compound 0.04 µM,0.466
same,relative viability,[10]; first compound 0.1265 µM,0.444
same,relative viability,[10]; first compound 0.4 µM,0.503
same,relative viability,[10]; first compound 1.265 µM,0.296
same,relative viability,[10]; first compound 4 µM,0.327
same,relative viability,[11]; first compound 0.04 µM,0.273
same,relative viability,[11]; first compound 0.4 µM,0.31
same,relative viability,[11]; first compound 1.265 µM,0.188
same,relative viability,[11]; first compound 4 µM,0.174
same,relative viability,[12]; first compound 0.04 µM,0.883
same,relative viability,[12]; first compound 0.1265 µM,0.788
same,relative viability,[12]; first compound 0.4 µM,0.888
same,relative viability,[12]; first compound 1.265 µM,0.635
same,relative viability,[12]; first compound 4 µM,0.846
same,relative viability,[13]; first compound 0.04 µM,0.767
same,relative viability,[13]; first compound 0.1265 µM,0.534
same,relative viability,[13]; first compound 0.4 µM,0.33
same,relative viability,[13]; first compound 1.265 µM,0.205
same,relative viability,[13]; first compound 4 µM,0.245
same,relative viability,[14]; first compound 0.04 µM,0.792
same,relative viability,[14]; first compound 0.4 µM,1.05
same,relative viability,[14]; first compound 1.265 µM,0.318
same,relative viability,[14]; first compound 4 µM,0.384
same,relative viability,[15]; first compound 0.04 µM,0.293
same,relative viability,[15]; first compound 0.1265 µM,0.292
same,relative viability,[15]; first compound 0.4 µM,0.261
same,relative viability,[15]; first compound 1.265 µM,0.188
same,relative viability,[15]; first compound 4 µM,0.152
same,relative viability,[16]; first compound 0.04 µM,0.536
same,relative viability,[16]; first compound 0.4 µM,0.405
same,relative viability,[16]; first compound 1.265 µM,0.263
same,relative viability,[16]; first compound 4 µM,0.221
same,relative viability,[17]; first compound 0.04 µM,0.428
same,relative viability,[17]; first compound 0.1265 µM,0.3
same,relative viability,[17]; first compound 0.4 µM,0.305
same,relative viability,[17]; first compound 1.265 µM,0.188
same,relative viability,[17]; first compound 4 µM,0.15
same,relative viability,[18]; first compound 0.04 µM,0.426
same,relative viability,[18]; first compound 0.1265 µM,0.326
same,relative viability,[18]; first compound 0.4 µM,0.337
same,relative viability,[18]; first compound 1.265 µM,0.365
same,relative viability,[18]; first compound 4 µM,0.294
same,relative viability,[19]; first compound 0.04 µM,0.581
same,relative viability,[19]; first compound 0.1265 µM,0.438
same,relative viability,[19]; first compound 0.4 µM,0.456
same,relative viability,[19]; first compound 1.265 µM,0.256
same,relative viability,[19]; first compound 4 µM,0.171
same,relative viability,[20]; first compound 0.04 µM,0.351
same,relative viability,[20]; first compound 0.1265 µM,0.299
same,relative viability,[20]; first compound 0.4 µM,0.298
same,relative viability,[20]; first compound 1.265 µM,0.179
same,relative viability,[20]; first compound 4 µM,0.202
